Experimental data reported in BindingDB's records for doi:10.1021/jm00062a011 (Smithkline Beecham Pharmaceuticals, 1993).
Structures can show the parent of a compound that is named as a salt.

The molecules below were run against cGMP-specific 3',5'-cyclic phosphodiesterase PDE5 (Sus scrofa) (assay: In vitro inhibition of PDE-V isolated from porcine pulmonary artery.).

Compound | IC50 [µM]
c1ccc(COc2ccccc2-c2nc3ncccc3[nH]2)cc1 [2-(2-Benzyloxy-phenyl)-3H-imidazo[4,5-b]pyridine] | 4
CCCCOc1ccccc1-c1nc2ncccc2[nH]1 [2-(2-Butoxy-phenyl)-3H-imidazo[4,5-b]pyridine] | 1
c1ccc(-c2nc3ncccc3[nH]2)c(OC2CCCC2)c1 [2-(2-Cyclopentyloxy-phenyl)-3H-imidazo[4,5-b]pyridine] | 15
c1ccc(-c2nc3ncccc3[nH]2)c(OCC2CC2)c1 [2-(2-Cyclopropylmethoxy-phenyl)-3H-imidazo[4,5-b]pyridine] | 6
CCCCCCOc1ccccc1-c1nc2ncccc2[nH]1 [2-(2-Hexyloxy-phenyl)-3H-imidazo[4,5-b]pyridine] | 4
CCCOc1ccccc1-c1cn2cccnc2n1 [2-(2-Propoxy-phenyl)-imidazo[1,2-a]pyrimidine] | 33
CCCSc1ccccc1-c1nc2ncccc2[nH]1 [2-(2-Propylsulfanyl-phenyl)-3H-imidazo[4,5-b]pyridine] | 24
Oc1ccccc1-c1nc2ncccc2[nH]1 [2-(3H-Imidazo[4,5-b]pyridin-2-yl)-phenol] | 37
CCCNc1ccccc1-c1nc2ncccc2[nH]1 [[2-(3H-Imidazo[4,5-b]pyridin-2-yl)-phenyl]-propyl-amine] | 26

Now from value to molecule:

IC50 [µM] | Compound
18 | CCOc1ccccc1-c1nc2ncccc2[nH]1 [2-(2-Ethoxy-phenyl)-3H-imidazo[4,5-b]pyridine]
42 | COc1ccccc1-c1nc2ccncc2[nH]1 [2-(2-Methoxy-phenyl)-3H-imidazo[4,5-c]pyridine; hydrochloride]
1 | CCCCCOc1ccccc1-c1nc2ncccc2[nH]1 [2-(2-Pentyloxy-phenyl)-3H-imidazo[4,5-b]pyridine]
1 | CCCCCOc1ccccc1-c1nc2ccncc2[nH]1 [2-(2-Pentyloxy-phenyl)-3H-imidazo[4,5-c]pyridine; hydrochloride]
58 | COc1cc([S+](C)[O-])ccc1-c1nc2cnccc2[nH]1 (stereo unspecified) [2-(4-Methanesulfinyl-2-methoxy-phenyl)-1H-imidazo[4,5-c]pyridine(isomazole)]
2 | ClCCCOc1ccccc1-c1nc2ncccc2[nH]1 [2-[2-(3-Chloro-propoxy)-phenyl]-3H-imidazo[4,5-b]pyridine]
24 | OCCCOc1ccccc1-c1nc2ncccc2[nH]1 [3-[2-(3H-Imidazo[4,5-b]pyridin-2-yl)-phenoxy]-propan-1-ol]
